Reference: patent US7772246B2 (Pfizer Inc., priority 2007, dated 2010)

What follows are compounds tested against T1, b-Raf (Homo sapiens, UniProt P15056, V600E) (assay: Raf cellular assay (phospho-Mek1/2 ELISA in A2058 cells)). Details: Table 3; human melanoma A2058 cells (b-Raf mutation), Mek1/2 Ser217/221 phosphorylation, 1 hour incubation; read-out: pMEK IC50.
T1 construct: endogenous in cells; host or cells: A2058 human melanoma cells
Assay type: cell-based
Procedure, shortened: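 A2058 melanoma cells (B-Raf mutant), seeded overnight in 10% FBS DMEM, were exposed to compounds (11-point 1:3 series, duplicate) for 1 h at 37 °C. Lysates were captured on anti-Mek1-coated plates and Mek1/2 Ser217/221 phosphorylation was read by anti-phospho-Mek1/2 ELISA, HRP/TMB, 450 nm.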

T1 sequence (P15056 whole entry V600E): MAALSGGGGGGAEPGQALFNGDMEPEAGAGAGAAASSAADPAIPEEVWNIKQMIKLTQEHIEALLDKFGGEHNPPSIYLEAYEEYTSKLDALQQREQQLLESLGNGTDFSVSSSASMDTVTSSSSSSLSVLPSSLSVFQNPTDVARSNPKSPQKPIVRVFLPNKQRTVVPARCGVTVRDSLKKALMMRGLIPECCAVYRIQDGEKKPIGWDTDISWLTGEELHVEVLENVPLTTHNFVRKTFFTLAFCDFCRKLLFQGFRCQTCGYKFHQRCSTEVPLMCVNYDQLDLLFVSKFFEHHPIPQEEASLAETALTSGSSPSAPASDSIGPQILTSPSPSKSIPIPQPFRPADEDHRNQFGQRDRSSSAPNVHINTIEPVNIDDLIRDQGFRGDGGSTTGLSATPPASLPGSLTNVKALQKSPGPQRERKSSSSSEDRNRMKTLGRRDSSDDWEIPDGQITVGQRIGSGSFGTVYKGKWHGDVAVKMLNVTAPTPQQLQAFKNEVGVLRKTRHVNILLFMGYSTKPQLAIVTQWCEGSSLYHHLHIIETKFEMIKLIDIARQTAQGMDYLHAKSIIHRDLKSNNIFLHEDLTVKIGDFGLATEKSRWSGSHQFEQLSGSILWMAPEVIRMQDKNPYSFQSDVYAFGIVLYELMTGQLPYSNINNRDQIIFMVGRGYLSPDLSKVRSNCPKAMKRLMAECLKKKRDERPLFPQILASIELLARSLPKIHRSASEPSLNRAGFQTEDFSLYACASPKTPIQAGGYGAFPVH

Row | SMILES | IC50
1 | CC(C)(CO)n1cc(-c2ccnc(NCCC#N)n2)c(-c2cnc3c(c2)CCN3)n1 [Example B-22, 3-({4-[3-(2,3-dihydro-1H-pyrrolo[2,3-b]pyridin-5-yl)-1-(2-hydroxy-1,1-dimethylethyl)-1H-pyrazol-4-yl]pyrimidin-2-yl}amino)propanenitrile] | 0.0263 µM
2 | C[C@H](O)CNc1nccc(-c2cn(C(C)(C)C#N)nc2-c2cnc3[nH]cc(Cl)c3c2)n1 [Example B-34, 2-[3-(3-chloro-1H-pyrrolo[2,3-b]pyridin-5-yl)-4-(2-{[(2S)-2-hydroxypropyl]amino}pyrimidin-4-yl)-1H-pyrazol-1-yl]-2-methylpropanenitrile] | 0.0295 µM
3 | C[C@H](O)CNc1nccc(-c2cn(C3CC(F)(F)C3)nc2-c2cnc3[nH]cc(Cl)c3c2)n1 [Example B-17, (2S)-1-({4-[3-(3-chloro-1H-pyrrolo[2,3-b]pyridin-5-yl)-1-(3,3-difluorocyclobutyl)-1H-pyrazol-4-yl]pyrimidin-2-yl}amino)propan-2-ol] | 0.0619 µM
4 | CC(=O)N1CCC(n2cc(-c3ccnc(NCC(F)F)n3)c(-c3cnc4[nH]cc(Cl)c4c3)n2)CC1 [Example B-67, 4-[1-(1-acetylpiperidin-4-yl)-3-(3-chloro-1H-pyrrolo[2,3-b]pyridin-5-yl)-1H-pyrazol-4-yl]-N-(2,2-difluoroethyl)-pyrimidin-2-amine] | 0.0092 µM
5 | Cc1[nH]c2ncc(-c3nn(C(C)C)cc3-c3ccnc(NC[C@H](C)O)n3)cc2c1Cl [Example B-97, (2S)-1-({4-[3-(3-chloro-2-methyl-1H-pyrrolo[2,3-b]pyridin-5-yl)-1-isopropyl-1H-pyrazol-4-yl]pyrimidin-2-yl}amino)propan-2-ol] | 0.174 µM
6 | Nc1nccc(-c2cn(C(F)F)nc2-c2cnc3[nH]cc(Cl)c3c2)n1 [Example B-43, 4-[3-(3-chloro-1H-pyrrolo[2,3-b]pyridin-5-yl)-1-(difluoromethyl)-1H-pyrazol-4-yl]pyrimidin-2-amine] | 0.0441 µM
7 | CCn1cc(-c2ccnc(NC[C@H](C)O)n2)c(-c2cnc3[nH]cc(Cl)c3c2)n1 [Example B-61, (2S)-1-({4-[3-(3-chloro-1H-pyrrolo[2,3-b]pyridin-5-yl)-1-ethyl-1H-pyrazol-4-yl]pyrimidin-2-yl}amino)propan-2-ol] | 0.0673 µM

Now from value to compound:

Row | IC50 | SMILES
8 | 0.0005 µM | COc1nc(-c2nn(C(C)C)cc2-c2ccnc(NCCC#N)n2)cnc1N [Example B-31, 3-({4-[3-(5-amino-6-methoxypyrazin-2-yl)-1-isopropyl-1H-pyrazol-4-yl]pyrimidin-2-yl}amino)propanenitrile]
9 | 2.2 µM | CC(=O)Nc1cc(C)c(-c2nn(CC(F)F)cc2-c2ccnc(NCCC#N)n2)cn1 [Example B-26, N-{5-[4-{2-[(2-cyanoethyl)amino]pyrimidin-4-yl}-1-(2,2-difluoroethyl)-1H-pyrazol-3-yl]-4-methylpyridin-2-yl}acetamide]
10 | 0.00962 µM | COc1cc(-c2nn(CC(F)F)cc2-c2ccnc(NC[C@H](C)O)n2)cnc1N [Example B-104, (2S)-({4-[3-(6-amino-5-methoxypyridin-3-yl)-1-(2,2-difluoroethyl)-1H-pyrazol-4-yl]pyrimidin-2-yl}amino)propan-2-ol]
11 | 0.00271 µM | CC(C)n1cc(-c2ccnc(NCCC#N)n2)c(-c2cnc3[nH]cc(F)c3c2)n1 [Example B-19, 3-({4-[3-(3-fluoro-1H-pyrrolo[2,3-b]pyridin-5-yl)-1-isopropyl-1H-pyrazol-4-yl]pyrimidin-2-yl}amino)propanenitrile]
12 | 0.016 µM | COc1cncc(-c2nn(CC(F)F)cc2-c2ccnc(NCCC#N)n2)c1 [Example B-46, 3-({4-[1-(2,2-difluoroethyl)-3-(5-methoxypyridin-3-yl)-1H-pyrazol-4-yl]pyrimidin-2-yl}amino)propanenitrile]
13 | 0.011 µM | Cc1n[nH]c2ncc(-c3nn(C(C)C)cc3-c3ccnc(NCCC#N)n3)cc12 [Example B-51, 3-({4-[1-isopropyl-3-(3-methyl-1H-pyrazolo[3,4-b]pyridin-5-yl)-1H-pyrazol-4-yl]pyrimidin-2-yl}amino)propanenitrile]
